This is an account of results in patent publication US4166810A, “Derivatives of 4-desacetyl VLB C-3 carboxyhydrazide” (priority 1978, dated 1979).

The subject of assay [1] is Gardner lymphosarcoma (GLS). The assay can be described thus: Transplanted tumor growth inhibition in mice, Gardner lymphosarcoma (GLS). The class given is in vivo. As for the experimental part: (§1) The compounds of this invention are active in inhibiting the growth of transplanted tumors in mice and/or in prolonging the life of tumor-innoculated mice. […] The size of the tumor was measured at 7 or 11 days where the drug inhibited tumor growth. Where life-prolongation was concerned, extra life span of treated animals over that of control animals was determined.
(§2) The following table--Table 1--gives the results of experiments in which mice bearing transplanted tumors were treated successfully with a compound of this invention. In the table, column 1 gives the name of the compound; column 2, the transplanted tumor; column 3, the dose level or dose level range and the number of days the dosage was administered; and column 4, the percent inhibition of tumor growth or percent prolongation of survival time, e.g., B16 (ROS is an abbreviation for Ridgeway osteogenic sarcoma; GLS for Gardner lymphosarcoma; P 1534 (J) for a leukemia and B16 for a malignant melanoma.

The test system of assay [2] is Ridgeway osteogenic sarcoma (ROS). Description: Transplanted tumor growth inhibition in mice, Ridgeway osteogenic sarcoma (ROS). The format is in vivo. As for the experimental part:
as §1, §2

Assay [3] relates to experimental malignancies. The following applies: animals; cited from earlier work.
Setting [4] is: 0.5 mg/kg × 10 days, measured at 7 days.
[5] abbreviates: 0.5 mg/kg × 10 days, measured at 11 days.
Setting [6] is: Mus musculus, 168 h, 0.125 mg/kg × 10 days, measured at 7 days, read-out: Percent Inhibition (of tumor growth), 7 days.
Setting [7] is: Mus musculus, 168 h, 0.25 mg/kg × 10 days, measured at 7 days, read-out: Percent Inhibition (of tumor growth), 7 days.
Setting [8] is: Mus musculus, 264 h, 0.125 mg/kg × 10 days, measured at 11 days, read-out: Percent Inhibition (of tumor growth), 11 days.
[9] abbreviates: Mus musculus, 168 h, 0.2 mg/kg × 9 days, 7 days, read-out: Percent Inhibition (of tumor growth), 7 days.
The mark [10] stands for this setting: Mus musculus, 264 h, 0.25 mg/kg × 10 days, measured at 11 days, read-out: Percent Inhibition (of tumor growth), 11 days.
[11] abbreviates: 0.25 mg/kg × 10 days, measured at 11 days.
The mark [12] stands for this setting: Mus musculus, 168 h, 0.5 mg/kg × 10 days, measured at 7 days, read-out: Percent Inhibition (of tumor growth), 7 days.

Like-named read-outs stand apart in the source and are kept apart here.

Turning to `CCC1(O)CC2CN(CCc3c([nH]c4ccccc34)C(C(=O)OC)(c3cc4c(cc3OC)N(C)C3C(O)(C(=O)NN(C)C)C(O)C5(CC)C=CCN6CCC43C65)C2)C1` (centres unmarked) [4-Desacetyl VLB C-3 N^2,N^2-dimethylcarboxhydrazide], the “Percent Inhibition (of tumor growth), 7 days” value (“Percent Inhibition … 7 days” below) in assay [1] (setting [4]) is given as “Toxic”. Further, the “Percent Inhibition (of tumor growth), 11 days” value (shortened to “Percent Inhibition … 11 days”) in assay [1] (setting [5]) was “Toxic”. Moreover, the inhibition in vivo at 0.125 mg/kg worked out at 100% in assay [1] (setting [6]) and 93% in assay [1] (setting [8]). The inhibition in vivo at 0.25 mg/kg in assay [1] (setting [7]) is 100%.
For the molecule `CCC1(O)CC2CN(CCc3c([nH]c4ccccc34)C(C(=O)OC)(c3cc4c(cc3OC)N(C)C3C(O)(C(=O)NNCCO)C(O)C5(CC)C=CCN6CCC43C65)C2)C1` (stereo not drawn) [4-Desacetyl VLB C-3 N^2-(β-hydroxy)ethylcarboxhydrazide], the “Percent Inhibition … 7 days” value in assay [1] (setting [4]) is on record as “Toxic”; in assay [2] (0.2 mg/kg × 10 days), 0%; in assay [2] (0.3 mg/kg × 10 days) it was 14%; in assay [2] (0.5 mg/kg × 10 days), “Toxic”. The “Percent Inhibition … 11 days” value in assay [1] (setting [5]) is listed as “Toxic”. Besides, in assay [1] (Mus musculus, 168 h, 0.1 mg/kg × 9 days, 7 days, read-out: Percent Inhibition (of tumor growth), 7 days), the inhibition in vivo at 0.1 mg/kg was found to be 0%. Moreover, the inhibition in vivo at 0.125 mg/kg in assay [1] (setting [6]) amounted to 77%; in assay [1] (setting [8]), 37%. Also, the inhibition in vivo at 0.2 mg/kg in assay [1] (setting [9]) came to 100%. Moreover, the inhibition in vivo at 0.25 mg/kg was found to be 100% in assay [1] (setting [7]) and 40% in assay [1] (setting [10]). In addition, the inhibition in vivo at 0.3 mg/kg in assay [1] (Mus musculus, 168 h, 0.3 mg/kg × 7 days, measured at 7 days, read-out: Percent Inhibition (of tumor growth), 7 days) was 20%; in assay [1] (Mus musculus, 168 h, 0.3 mg/kg × 9 days, 7 days, read-out: Percent Inhibition (of tumor growth), 7 days) it was 17%. In assay [1] (Mus musculus, 168 h, 0.5 mg/kg × 7 days, measured at 7 days, read-out: Percent Inhibition (of tumor growth), 7 days), the inhibition in vivo at 0.5 mg/kg worked out at 90%.
On to `CCC1(O)CC2CN(CCc3c([nH]c4ccccc34)C(C(=O)OC)(c3cc4c(cc3OC)N(C)C3C(O)(C(=O)NNC(=O)c5ccccc5)C(O)C5(CC)C=CCN6CCC43C65)C2)C1` (centres unmarked) [4-Desacetyl VLB C-3 N^2-benzoylcarboxhydrazide], for which the “Percent Inhibition … 11 days” value in assay [1] (setting [11]) and in assay [1] (setting [5]) was “Toxic” in each case. In assay [1] (setting [4]), the “Percent Inhibition … 7 days” value is given as “Toxic”. Besides, the inhibition in vivo at 0.125 mg/kg in assay [1] (setting [6]) is 76%; in assay [1] (setting [8]), 45%. In addition, the inhibition in vivo at 0.25 mg/kg in assay [1] (setting [7]) is 100%.
On to `CCOC(=O)NNC(=O)C1(O)C(O)C2(CC)C=CCN3CCC4(c5cc(C6(C(=O)OC)CC7CN(CCc8c6[nH]c6ccccc86)CC(O)(CC)C7)c(OC)cc5N(C)C14)C32` (centres unmarked) [4-Desacetyl VLB C-3 N^2-ethylcarbazylcarboxhydrazide], for which the inhibition in vivo at 0.2 mg/kg in assay [1] (Mus musculus, 168 h, 0.2 mg/kg × 7 days, measured at 7 days, read-out: Percent Inhibition (of tumor growth), 7 days) stood at 100%. Also, in assay [1] (Mus musculus, 168 h, 0.4 mg/kg × 7 days, measured at 7 days, read-out: Percent Inhibition (of tumor growth), 7 days), the inhibition in vivo at 0.4 mg/kg was determined as 93%. Also, the “Percent Inhibition … 7 days” value is 66% in assay [2] (0.2 mg/kg × 10 days) and “Toxic” in assay [2] (0.4 mg/kg × 10 days).
On to `CCNNC(=O)C1(O)C(O)C2(CC)C=CCN3CCC4(c5cc(C6(C(=O)OC)CC7CN(CCc8c6[nH]c6ccccc86)CC(O)(CC)C7)c(OC)cc5N(C)C14)C32` (centres unmarked) [4-Desacetyl VLB C-3 N^2-ethylcarboxhydrazide], for which the “Percent Inhibition … 11 days” value in assay [1] (setting [11]) and in assay [1] (setting [5]) was “Toxic” in each case. Also, the “Percent Inhibition … 7 days” value in assay [1] (setting [4]) is “Toxic”. The inhibition in vivo at 0.25 mg/kg in assay [1] (setting [7]) worked out at 100%.
Turning to `CC=NNC(=O)C1(O)C(O)C2(CC)C=CCN3CCC4(c5cc(C6(C(=O)OC)CC7CN(CCc8c6[nH]c6ccccc86)CC(O)(CC)C7)c(OC)cc5N(C)C14)C32` (centres unmarked) [4-Desacetyl VLB C-3 N^2-ethylidenecarboxhydrazide], the “Percent Inhibition … 7 days” value is “Toxic” in assay [1] (0.4 mg/kg × 9 days, 7 days); 100% in assay [2] (0.2 mg/kg × 9 days); “Toxic” in assay [2] (0.4 mg/kg × 9 days). In assay [1] (setting [9]), the inhibition in vivo at 0.2 mg/kg came to 100%.
As for `CCC1(O)CC2CN(CCc3c([nH]c4ccccc34)C(C(=O)OC)(c3cc4c(cc3OC)N(C)C3C(O)(C(=O)NN=C(C)C)C(O)C5(CC)C=CCN6CCC43C65)C2)C1` (centres unmarked) [4-Desacetyl VLB C-3 N^2-isopropylidenecarboxhydrazide], the “Percent Inhibition … 7 days” value in assay [2] (0.05 mg/kg × 10 days) is given as 33%; in assay [2] (0.1 mg/kg × 10 days), 42%; in assay [2] (0.15 mg/kg × 10 days) it was 74%; in assay [2] (0.2-1.0 mg/kg × 10 days), “Toxic”.
For `CCC1(O)CC2CN(CCc3c([nH]c4ccccc34)C(C(=O)OC)(c3cc4c(cc3OC)N(C)C3C(O)(C(=O)NNC)C(O)C5(CC)C=CCN6CCC43C65)C2)C1` (centres unmarked) [4-Desacetyl VLB C-3 N^2-methylcarboxhydrazide], the “Percent Inhibition … 7 days” value in assay [1] (0.25-0.5 mg/kg × 10 days, measured at 7 days) is “Toxic”. Further, in assay [1] (0.25-0.5 mg/kg × 10 days, measured at 11 days), the “Percent Inhibition … 11 days” value is given as “Toxic”. Further, the inhibition in vivo at 0.125 mg/kg in assay [1] (setting [6]) came to 83%; in assay [1] (setting [8]) it was 53%.
Take `C=NNC(=O)C1(O)C(O)C2(CC)C=CCN3CCC4(c5cc(C6(C(=O)OC)CC7CN(CCc8c6[nH]c6ccccc86)CC(O)(CC)C7)c(OC)cc5N(C)C14)C32` (centres unmarked) [4-Desacetyl VLB C-3 N^2-methylidenecarboxhydrazide]: the “Percent Inhibition … 7 days” value in assay [1] (setting [4]) is given as “Toxic”. The “Percent Inhibition … 11 days” value in assay [1] (setting [5]) was “Toxic”. The inhibition in vivo at 0.125 mg/kg in assay [1] (setting [6]) and in assay [1] (setting [8]) was 91% in each case. The inhibition in vivo at 0.25 mg/kg in assay [1] (setting [7]) and in assay [1] (setting [10]) was 100% each time.
Regarding `CCC1(O)CN2CCc3c([nH]c4ccccc34)C(C(=O)OC)(c3cc4c(cc3OC)N(C)C3C(O)(C(=O)OC)CC5(CC)C=CCN6CCC43C65)CC(C2)C1O` (centres unmarked) [4-desacetoxy-3'-hydroxyvinblastine], the “activity in the treatment of experimental malignancies” value in assay [3] is reported as “found active in the treatment of experimental malignancies in animals”.
With `CCC1(O)CC2CN(CCc3c([nH]c4ccccc34)C(C(=O)OC)(c3cc4c(cc3OC)N(C)C3C(O)(C(=O)OC)CC5(CC)C=CCN6CCC43C65)C2)C1` (centres unmarked) [4-desacetoxyvinblastine], the “activity in the treatment of experimental malignancies” value in assay [3] is reported as “found active in the treatment of experimental malignancies in animals”.
As to `CCC1(O)CC2CN(CCc3c([nH]c4ccccc34)C(C(=O)OC)(c3cc4c(cc3OC)N(C)C3C(O)(C(=O)NNCCOC(C)=O)C(O)C5(CC)C=CCN6CCC43C65)C2)C1` (stereo not drawn) [4-desacetyl VLB C-3 N^2-(β-acetoxy)ethylcarboxhydrazide], the inhibition in vivo at 0.125 mg/kg in assay [1] (setting [6]) came to 74%; in assay [1] (setting [8]), 26%. Further, the inhibition in vivo at 0.25 mg/kg in assay [1] (setting [7]) was found to be 100%; in assay [1] (setting [10]), 73%. The inhibition in vivo at 0.5 mg/kg was found to be 100% in assay [1] (setting [12]) and 100% in assay [1] (Mus musculus, 264 h, 0.5 mg/kg × 10 days, measured at 11 days, read-out: Percent Inhibition (of tumor growth), 11 days).
As to `CCCC(=O)NNC(=O)C1(O)C(O)C2(CC)C=CCN3CCC4(c5cc(C6(C(=O)OC)CC7CN(CCc8c6[nH]c6ccccc86)CC(O)(CC)C7)c(OC)cc5N(C)C14)C32` (centres unmarked) [4-desacetyl VLB C-3 N^2-butyrylcarboxhydrazide], the “Percent Inhibition … 11 days” value in assay [1] (setting [5]) is recorded as “Toxic”. Further, the inhibition in vivo at 0.125 mg/kg in assay [1] (setting [6]) and in assay [1] (setting [8]) was 100% each time. The inhibition in vivo at 0.25 mg/kg in assay [1] (setting [7]) and in assay [1] (setting [10]) was 100% throughout. Moreover, the inhibition in vivo at 0.5 mg/kg in assay [1] (setting [12]) came to 64%.
Consider “VLB C-3 N^2 -(β-acetoxy)ethyl-carboxhydrazide”, for which the “Percent Inhibition … 7 days” value in assay [1] (0.125 mg/kg × 10 days, measured at 7 days) is 36%; in assay [1] (0.25 mg/kg × 10 days, measured at 7 days), 74%; in assay [1] (setting [4]), 100%. Besides, the “Percent Inhibition … 11 days” value came to 35% in assay [1] (0.125 mg/kg × 10 days, measured at 11 days); 55% in assay [1] (setting [11]); 87% in assay [1] (setting [5]).
